Our source for the AC50 and activity change, negative = inhibition values is PubChem BioAssay AID588530 (Broad Institute, 2011).

Active and inactive are the calls of the source.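 How the source made its calls: active means Alamar Blue signal falls with dose, AC50 no more than twice the top valid dose; inconclusive means flat curve near half-strength inhibition, or poor fit; inactive means the rest.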 Where only a bound is given, the exact number is not on record here.

The first experiment relates to C. albicans CaCi-17 growth, Alamar Blue fluorescence, 48 h. Description: growth inhibition of C. albicans isolate, confirmation, CaCi-17 isolate, Alamar Blue, cherry-pick retest (AID 588530).
Conditions: not given
Take `Oc1c(CN2CCN(c3ccc(F)cc3)CC2)cc(Cl)c2cccnc12`: the AC50 is 7.42 µM.

For `Cc1cc(NC(c2ccc(Cl)cc2)c2ccc3cccnc3c2O)no1` (centres undefined), the AC50 was 2.49 µM. As for `O=C(N/N=C/c1c(O)ccc2ccccc12)c1cccc(C(F)(F)F)c1`, the AC50 was > 52 µM (inactive). Regarding `COc1cccc(/C=N/Nc2ncnc3scc(-c4ccccc4)c23)c1O`, the AC50 was 12.5 µM. As for `Oc1c(C(Nc2nccs2)c2ccc(C(F)(F)F)cc2)ccc2cccnc12` (centres undefined), the AC50 was 4.11 µM.

Turning to `CCCCC(=O)NC(c1ccc(N(CC)CC)cc1)c1ccc2cccnc2c1O` (centres undefined), the AC50 is 3.73 µM. On to `CCOc1ccc(N=Nc2ccc(O)c3ncccc23)cc1`, for which the AC50 was 11.6 µM. On to `O=C(Oc1c(Cl)cc(Cl)c2cccnc12)c1cccs1`, for which the AC50 was 3.29 µM. With `Oc1c(C(Nc2nc3ccccc3s2)c2ccco2)ccc2cccnc12` (centres undefined), the AC50 is 3.97 µM.

Regarding `CCOC(=O)N1C(=O)C2(CCCCC2)N(c2ccc(C)cc2)C1=S`, the AC50 is 1.3 µM. As for `O=C(N/N=C/c1cc2c3c(c1O)CCCN3CCC2)c1ccccc1O`, the AC50 is 4.28 µM. Turning to `CN1CCN(C(c2ccc(C(F)(F)F)cc2)c2ccc3cccnc3c2O)CC1` (centres undefined), the AC50 was 8.86 µM. The same measure, in the same setting: with `COc1cccc(N=Nc2ccc3cccnc3c2O)c1` the figure was 5.37 µM; with `CCN(CC)S(=O)(=O)c1cc(OC)ccc1N=Nc1ccc(O)c2ncccc12`, 15.3 µM. Consider `CN1CCN(C(c2ccc(C(F)(F)F)cc2)c2cc(Cl)c3cccnc3c2O)CC1` (centres undefined), for which the AC50 is 6.34 µM.

`C(C#CCCCCCCCCC[n+]1ccccc1)#CCCCCCCCCC[n+]1ccccc1`: the AC50 is 1.52 µM. Turning to `O=Nc1c(-c2cccc([N+](=O)[O-])c2)nc2ncccn12`, the AC50 is 4.77 µM.

Regarding `C/C(=N\NC(=O)c1cc2ccccc2cc1O)c1ccccn1`, the AC50 is 5.02 µM.

`Oc1ccc(N=Nc2ccc3c(c2)OCCO3)c2cccnc12`: the AC50 is 10.8 µM.

Regarding `O=Cc1ccc(O)c2ncccc12`, the AC50 was 13.7 µM.

As to `CCCCC(=O)NC(c1ccco1)c1cc(Cl)c2cccnc2c1O` (centres undefined), the AC50 is 24.9 µM. For `CCCCCCC[n+]1ccc(-c2cc[n+](CCCCCCC)cc2)cc1`, the AC50 was 13.4 µM. As for `CCN1/C(=C/C=C/c2oc3ccc(-c4ccccc4)cc3[n+]2CC)Oc2ccc(-c3ccccc3)cc21`, the AC50 is 2.43 µM.

On to `COc1cccc(N=Nc2ccc(O)c3ncccc23)c1`, for which the AC50 is 3.91 µM. The same measure, in the same setting: the result for `Oc1ccc(N=Nc2ccc3c(c2)OCCO3)c2ncccc12` reads > 52 µM (inactive). For `Oc1c(C(c2ccc(Cl)cc2)N2CCCC2)cc(Cl)c2cccnc12` (centres undefined), the AC50 is 7.68 µM. Consider `O=C(Oc1c(Cl)cc(Cl)c2cccnc12)c1ccco1`, for which the AC50 was 1.71 µM. On the same count and under the same terms, the result for `O=[N+]([O-])c1cc(CN2CCN(c3ccccc3)CC2)c(O)c2ncccc12` reads 10.6 µM; that for `Oc1c(CN2CCN(c3ccccc3)CC2)cc(Br)c2cccnc12`, > 52 µM (inactive); that for `O=c1ccc(N=Nc2ccccc2)ccc1O`, 4.73 µM. `C=CCNC(=S)N/N=C(\C)c1ccccn1`: the AC50 was 8.96 µM. As to `COc1ccc(C)cc1N=Nc1ccc(O)c2ncccc12`, the concentration at half-maximal activity (AC50) was 2.99 µM.

System in a further experiment: not listed separately
Described as above. The conditions noted are these: C. albicans CaCi-17 growth, Alamar Blue fluorescence, 48 h; at 26 µM (top of the series). On the technique in general: Resazurin is reduced to fluorescent resorufin, in cell work by metabolically active cells.
`Cc1ccc(C(=O)c2coc3c2C(=O)C(=O)c2ccccc2-3)cc1`: the activity change, negative = inhibition is 7.03% (inactive).

With `O=[N+]([O-])c1ccc(O)c(/C=N/Nc2ccc(Cl)nn2)c1`, the activity change, negative = inhibition is -23.4% (inactive).

By AC50 is commonly meant the concentration giving half of the maximal activity seen.
